Results on 26 compounds are retold here after PubChem BioAssay (NCI).

SMILES strings stand for the structures.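 Compound exposure: 48 hours, 5 concentrations, 96-well plates. Here, GI50 denotes the concentration required for 50% inhibition of growth. TGI marks complete inhibition of growth.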

Test in all cases: NCI-60 cell line screen, 48 h
For experiment [1], the system named is HOP-92 NSCLC.
Experiment [2] relates to SK-MEL-2 melanoma.
The test system of experiment [3] is MALME-3M melanoma.
Experiment [4] relates to KM12 colon.
Experiment [5] relates to OVCAR-4 ovarian.
Experiment [6] relates to MDA-N.
Experiment [7] deals with ACHN renal.
The subject of experiment [8] is SK-MEL-28 melanoma.
The test system of experiment [9] is K-562 leukemia.
Experiment [10] concerns 786-0 renal.
In experiment [11] the test system is SN12C renal.

With `Cc1cc2ccccc2n1CC(=O)N1CCCC1`, the TGI in [1], in experiment [2], in experiment [3], in experiment [4], in experiment [5] and in experiment [6] was > 100 µM throughout. In addition, the TGI in experiment [7], in [8], in experiment [9], in experiment [10] and in experiment [11] was > 100 µM each time.
Take `N/N=C1/C(=N/O)CCc2nonc21`: the TGI in experiment [1], in [2], in experiment [3], in [4], in experiment [5] and in [6] was > 100 µM in each case. The TGI in [7], in experiment [8], in experiment [9], in [10] and in [11] was > 100 µM throughout.
Take `Cc1cc(=O)n2nc(CSc3nnc(N)s3)sc2n1`: the TGI in experiment [1], in [2], in experiment [3], in experiment [4], in experiment [5] and in experiment [6] was > 100 µM throughout. In addition, the TGI in experiment [7], in experiment [8], in experiment [9], in experiment [10] and in experiment [11] was > 100 µM in each case.
Consider `CCCn1c(=O)c2ccccc2[n+]2c(-c3ccc([N+](=O)[O-])cc3)csc12`, for which the TGI in [1] was > 100 µM; in experiment [2] it was > 100 µM; in experiment [4], 78.3 µM; in experiment [5] it was > 100 µM; in [6], > 100 µM; in [7] it was > 100 µM. Besides, the TGI in experiment [9] is 69.4 µM; in experiment [10] it was 76.3 µM; in [11], > 100 µM.
In the case of `CCOC(=O)C1=C(C)C(C(=O)OC)/C(=C/c2cccc3cccnc23)C1=O` (stereo unspecified), the TGI in experiment [1], in experiment [2], in experiment [3], in experiment [4], in experiment [5] and in [6] was > 10 µM throughout. Also, the TGI in experiment [7], in experiment [8], in experiment [9], in [10] and in experiment [11] was > 10 µM throughout.
For `N#Cc1c(N2CCCC2)ncn(Cc2ccccc2)c1=S`, the TGI was 99.3 µM in experiment [1]; > 100 µM in experiment [2]; > 100 µM in experiment [3]; > 100 µM in experiment [4]; > 100 µM in [5]; > 100 µM in [6]. In addition, the TGI in experiment [7], in experiment [8], in experiment [9], in [10] and in experiment [11] was > 100 µM in each case.
On to `COc1cc(/C=C2\N=C(c3ccccc3)N(/N=C3\C(=O)Nc4ccccc43)C2=O)cc(OC)c1OC`, for which the TGI in experiment [1], in experiment [2], in experiment [3], in experiment [4], in [5] and in experiment [6] was > 100 µM each time. The TGI in experiment [7], in experiment [8], in experiment [9], in [10] and in experiment [11] was > 100 µM throughout.
For `COc1c(OC)c(O)c2c(=O)c(OC)c(-c3ccc4c(c3)OCO4)oc2c1O`, the TGI in experiment [1], in experiment [2], in [3], in experiment [4], in [5] and in experiment [6] was > 100 µM each time. For the same compound, the TGI in experiment [7], in experiment [8], in experiment [9], in experiment [10] and in experiment [11] was > 100 µM each time.
As for `CC(NC(=O)OCc1ccccc1)NC(=O)C(CC(=O)OC(C)(C)C)NC(=O)OC(C)(C)C` (stereo unspecified), the TGI in experiment [1], in [2], in [3], in experiment [4], in experiment [5] and in experiment [6] was > 100 µM each time. Besides, the TGI in experiment [7], in experiment [8], in experiment [9], in experiment [10] and in experiment [11] was > 100 µM in each case.
`Cc1nccn1S(=O)(=O)c1ccc(Br)cc1Br`: the TGI in experiment [1] was 75.3 µM; in [2] it was 55 µM; in experiment [3], > 100 µM; in experiment [4], 88.7 µM; in [5] it was > 100 µM; in [6], 50.1 µM. Also, the TGI in experiment [7], in experiment [8], in experiment [9], in experiment [10] and in experiment [11] was > 100 µM throughout.
As for `COc1ccccc1NC(=S)N/N=C(/C)c1ccccn1`, the TGI in experiment [1] is > 100 µM; in experiment [2], > 88.7 µM; in experiment [3], 16.7 µM; in [4] it was > 100 µM; in experiment [5] it was > 100 µM; in [6] it was > 100 µM. Further, the TGI is 12.9 µM in experiment [7]; > 100 µM in experiment [8]; > 100 µM in experiment [9]; 5.17 µM in experiment [10]; 6.73 µM in experiment [11].
Regarding `Cc1cccc2nc3cccc(C(=O)NCCC[N+](C)(CCCNC(=O)c4cccc5nc6cccc(C)c6nc45)Cc4c([N+](=O)[O-])ncn4C)c3nc12`, the GI50 in experiment [1] was > 1100 µM; in experiment [2] it was 260 µM; in experiment [3], 26.2 µM; in experiment [4], 17.5 µM; in experiment [5], 14.8 µM; in [6] it was 18.1 µM. Also, the GI50 in [7] was 3.59 µM; in experiment [8], 403 µM; in [11], 150 µM. The TGI is > 1100 µM in experiment [1]; > 1100 µM in experiment [2]; 432 µM in experiment [3]; > 1100 µM in [4]; > 1100 µM in experiment [5]; > 1100 µM in experiment [6]. Further, the TGI in experiment [7], in experiment [8], in [9], in [10] and in experiment [11] was > 1100 µM in each case.
`COCN1CCN=c2c1c1c3c(c4ccccc4n23)CCC1`: the TGI in [1], in experiment [2], in experiment [3], in [4], in experiment [5] and in experiment [6] was > 100 µM each time. The TGI in experiment [7], in experiment [8], in experiment [9], in experiment [10] and in experiment [11] was > 100 µM each time.
Turning to `CO/C(=N\N=C\c1ccc(Cl)cc1Cl)c1ccncc1`, the TGI in [1], in experiment [2], in [3], in experiment [4], in experiment [5] and in [6] was > 10 µM each time. Besides, the TGI in experiment [7], in experiment [9], in experiment [10] and in experiment [11] was > 10 µM in each case.
With `O=C1OC2(C(F)(F)F)Oc3ccccc3CN2C12CCCCC2` (stereo unspecified), the TGI in experiment [1] was 61.7 µM; in experiment [3], 53.2 µM; in experiment [4] it was 90.8 µM; in [5], > 100 µM; in [6], > 100 µM; in experiment [7], 38.1 µM. The TGI in experiment [8] is > 100 µM; in [9], 52.6 µM; in experiment [10], > 100 µM; in experiment [11], > 100 µM.
For `NC(c1ccccc1)(C(F)(F)F)P1(=O)OC(=O)c2ccccc2O1` (stereo unspecified), the TGI in [1] was 85 µM; in experiment [2], > 100 µM; in experiment [4] it was > 100 µM; in experiment [5], > 100 µM; in experiment [6], > 100 µM; in experiment [7], > 100 µM. Besides, the TGI in [8], in [9], in experiment [10] and in [11] was > 100 µM throughout.
For `O=C1CCC2(CC1CCSc1ccccc1)OCCO2` (stereo unspecified), the TGI in [1], in [2], in experiment [3], in [4], in [5] and in experiment [6] was > 100 µM each time. The TGI in experiment [7], in experiment [8], in experiment [9] and in [10] was > 100 µM each time.
With `Cc1cn(CC2=NCCCN2)c(=O)[nH]c1=O`, the TGI in [1], in experiment [2], in experiment [3], in experiment [6], in [7] and in experiment [8] was > 100 µM in each case. In addition, the TGI in [9], in experiment [10] and in experiment [11] was > 100 µM in each case.
As for `CC(=Nc1c2ccccc2nc2ccccc12)N(C)C`, the TGI in [1] was 37.2 µM; in experiment [2], 46 µM; in experiment [3], > 100 µM; in [5] it was 90.8 µM; in experiment [6], 90.3 µM; in [7], 76.4 µM. For the same compound, the TGI in experiment [8] was 61.5 µM; in experiment [9] it was 25.4 µM; in experiment [10], > 100 µM.
As to `O=C(NNc1cn[nH]c(=O)c1Cl)/C(=C/c1ccc2c(c1)OCO2)NC(=O)c1ccccc1`, the TGI in [1], in [2], in experiment [4], in experiment [5], in experiment [6] and in experiment [7] was > 100 µM throughout. Further, the TGI in [8], in experiment [10] and in [11] was > 100 µM in each case.
Turning to `O=c1[nH]c(=O)n(COCc2ccccc2)c2ccc(Br)cc12`, the TGI in [1], in [2], in experiment [4], in experiment [5], in [6] and in [7] was > 100 µM in each case. Further, the TGI in experiment [8], in experiment [9], in experiment [10] and in [11] was > 100 µM each time.
For the compound `O=C1C=C2CO[C@H]3OC[C@H](O)[C@@H]1[C@@H]23`, the TGI in experiment [1] is > 100 µM; in [2] it was 37.3 µM; in experiment [3] it was 55 µM; in experiment [4] it was > 100 µM; in experiment [6], > 100 µM; in [7], > 100 µM. Also, the TGI in experiment [8] is > 100 µM; in experiment [9] it was > 100 µM; in experiment [10] it was > 100 µM; in experiment [11] it was 90 µM.
With `CCOP(=O)(OCC)/C(=C\N1C(=O)CC(=O)NC1=S)C(=O)OC`, the TGI in experiment [1], in [2], in experiment [4], in experiment [5], in experiment [6] and in [7] was > 100 µM in each case. The TGI in experiment [8], in experiment [10] and in [11] was > 100 µM throughout.
Regarding `O=c1[nH]c(=O)n(COCc2ccccc2)c2ccc([N+](=O)[O-])cc12`, the TGI in experiment [1], in [2], in [4], in [5], in experiment [6] and in experiment [7] was > 100 µM throughout. Moreover, the TGI in experiment [8], in experiment [9], in experiment [10] and in experiment [11] was > 100 µM throughout.
Take `c1cc(C[S+]2CCCC2)ccc1C[S+]1CCCC1`: the TGI in [1], in experiment [3], in experiment [4], in [5], in experiment [6] and in experiment [7] was > 100 µM throughout. Also, the TGI in experiment [8], in experiment [9], in experiment [10] and in [11] was > 100 µM in each case.
Turning to `O=C1CSC2=NCC3(NN12)c1ccccc1-c1ccccc13`, the TGI in experiment [1], in [3], in experiment [4], in experiment [5], in experiment [6] and in experiment [7] was > 10 µM in each case. In addition, the TGI in experiment [8], in [9], in experiment [10] and in experiment [11] was > 10 µM throughout.
